This note sets out measurements from patent US12448393B2, “Use of novel compound, for preventing, improving or treating amyotrophic lateral sclerosis” (PRG S&TECH INC., priority 2019, dated 2025).

The test system of one data set is WT-SOD1. Kind of data set: WT-SOD1 aggregation by cellular stress. The data set is classed as cell-based.
The subject of data set [1] is WT-SOD1 and mutant SOD1-GST (A4V, G37R, G85R, G93A). Put plainly: ELISA compound screening for binding inhibitor between WT-SOD1 and mutant SOD1. Set-up: species or system human. As to conditions: Table 1; compounds at final concentration of 50 μM. The protocol:
For compound screening, the present inventors applied an ELISA assay system. To select a binding inhibitor between WT-SOD1 and mutant SOD1, the present inventors used 0.5% paraformaldehyde (PFA) to fix WT-SOD1 recombinant protein on a 96-well plate. The plate was dried, washed with phosphate-buffered saline (PBS), and reacted with the compounds at a final concentration of 50 μM, and then mutant SOD1-GST (A4V, G37R, G85R, G93A) proteins were added. After 2 hours of reaction, the 96-well plate was washed with PBS and blocked with 3% skim milk to prevent non specific reaction. The plate was reacted with anti-GST antibody (diluted at 1:10,000) for 1 hour, and then reacted with anti-mouse IgG-HRP (diluted at 1:50,000) for 1 hour. After washing twice, the plate was reacted with a 3,3′,5,5′-tetramethylbenzidine (TMB) solution (Calbiochem) for 30 minutes and a stop solution (1N H2SO4) for 30 minutes. Finally, the present inventors analyzed values using an ELISA reader (450 nm absorbance). Negative control (−; red line) was reacted without mutant SOD1, and positive control (+; blue line) was reacted with mutant SOD1 without the compounds.
To prepare recombinant proteins, human SOD1 (WT, A4V, G37R, G85R, G93A) was added to EcoRI and HindIII sites of pGEX-TEV vector, an improved vector made by adding a TEV protease cleavage site to pGEX-4T1 (Invitrogen). The recombinant proteins were expressed as GST-fusion proteins in Escherichia coli (E. coli) strain BL21 (DE3). The proteins were purified by glutathione-affinity chromatography.
In general terms: ELISA stands for enzyme-linked immunosorbent assay.

In data set [2] the test system is SOD1. Kind of data set: Immunofluorescence staining of SOD1 aggregation and misfolded SOD1. It counts as cell-based, human. The conditions noted are these: Table 1; IF staining of SOD1. The protocol: Cells on coverslip were washed with PBS, fixed with 4% PFA at room temperature for 30 minutes, and then infiltrated with 0.1% Triton X-100/PBS for 10 minutes. The cells were treated with blocking solution (anti-Human Antibody 1:500 dilution in PBS) for 1 hour, and then cells were reacted with anti-pan SOD1 (1:400 dilution), misfolded SOD1 (B8H10; 1:200 dilution in blocking solution) at 4° C. overnight. Finally, the cells were reacted with FITC and rhodamine-conjugated secondary antibody at 4° C. for 6 hours. Nuclei were stained with 4,6-diamidino-2-phenylindole (DAPI), and endoplasmic reticula (ERs) were stained with ER-Tracker Red dye for 10 minutes. The cells were washed 3 times with PBS, and then coverslips were mounted with mounting solution [H-5501; Vector Laboratories (Burlingame, CA, USA)] and analyzed by fluorescence microscopy (Zeiss).
(§1) GFP-SOD1 (WT, G85R, G93A), non-tagged SOD1 (WT, A4V, G37R, G85R, G93A) and tdTomato-TDP43 expression vectors were purchased from Addgene (Cambridge, MA, USA). Transfection was performed using Jet-PEI reagent (JetPEI; Polyplus transfection, New York, NY, USA) according to the manufacturer's protocol. Briefly, vectors were mixed with JetPEI reagent in 150 mM NaCl buffer, and then mixture was reacted for 15 minutes. The mixture was added to cells in serum-free medium and reacted for 4 hours. After reaction, the cells were replaced with a culture medium supplemented with 10% FBS.

Data set [3] concerns SOD1. Put plainly: Western blot / native gel analysis of SOD1 aggregation. It counts as cell-based, human. The conditions noted are these: Table 1; effect on SOD1 aggregation, native / non-SDS-PAGE gel. The protocol:
Using RIPA buffer (50 mM Tris-Cl, pH 7.5, 150 mM NaCl, 1% NP-40, 0.1% SDS and […]) for SDS-PAGE and lysis buffer (50 mM Tris-Cl, pH 7.5, 150 mM NaCl, 0.3% NP-40) for Native-PAGE, proteins were extracted from cells. Samples were separated by the SDS-PAGE or the Native-PAGE and transferred to PVDF membrane. Blotted membrane was blocked with TBST buffer including 3% skim milk for 1 hour, and reacted with specific antibodies. The reacted antibodies were detected by ECL and X-ray film exposure. Antibodies used in the present disclosure are as follows: pan-SOD1 (GTX100554) was purchased from Genetex (California, USA). Misfolded SOD1-specific antibody (B8H10) was purchased from MediMabs (Montreal, Canada). Actin (sc-1616), GST (sc-138), and GFP (Green fluorescent protein; sc-8036) were purchased from Santa Cruz biotechnology (Santa Cruz, CA, USA). TDP-43 antibody (10782-2-AP) was purchased from Proteintech (Rosemont, IL, USA). Anti-FLAG (Sigma; F3165) was purchased from Sigma Aldrich (St, Louis, Mo, USA), and HRP-conjugated goat anti-mouse, goat anti-rabbit, and mouse anti-goat antibodies (Pierce, Thermo Fisher Scientific, Inc., Rockford, IL, USA) were used as secondary antibodies.
as §1
A general note: In western blotting, separated proteins are transferred to a membrane and probed.

A further data set relates to normal human fibroblasts. Kind of data set: Cell viability measurement (MTT), normal fibroblasts. The data set is classed as cell-based. As to conditions: Table 1; cell type not given, neurons (FIG. 9A) and normal fibroblasts (FIG. 9B). The protocol:
HEK293 cells were purchased from American Type Culture Collection (ATCC, Manassas, VA, USA) and maintained at 37° C. and 5% CO2 in DMEM liquid medium including 10% fetal bovine serum and 1% penicillin-streptomycin. SK—N—SH cells were purchased from Korean Cell Line Bank (KCLB, Seoul, South Korea) and maintained in MEM medium including 10% fetal bovine serum, 1% antibiotic, 25 mM HEPES, and 300 mg/L L-Glu. Human fibroblasts (person) were purchased from Coriell Cell Repositories (New Jersey, USA) and maintained in EMEM including 15% FBS, 2 mM Glutamine, and 26 mM HEPES without antibiotics. Thapsigargin (ER calcium scavenger: CAS 67526-95-8) was purchased from Calbiochem (Darmstadt, Germany). CoCl2 (hypoxia-inducer: C8661) was purchased from Sigma Aldrich (St, Louis, Mo, USA).
To check cells viability, the cells were reacted with 0.5 mg/ml MTT solution (475989; Merck, Darmstadt, Germany) at 37° C. for 4 hours. After removing residual solution and washing with PBS, precipitate was dissolved in 200 μl DMSO, and quantified by measuring absorbance at 540 nm.

Like-named read-outs stand apart in the source and are kept apart here.

On to `C[N+](C)(C)CCO.C[N+](C)(C)CCO.[SH-].[SH-].[S]=[Mo]=[S]` [ATN-224], for which the “SOD1 aggregation under cellular stress agents” value (“SOD1 aggregation” below) in the data set with WT-SOD1 (FIG. 1C, 1D, FIG. 2) is “induced the WT-SOD1 aggregation”.
As to `[Cl-].[Cl-].[Co+2]` [CoCl2], the “SOD1 aggregation” value with WT-SOD1 was “SOD1 aggregation and increase of misfolded SOD1”.
`COc1cc(CCC(=O)O[C@H]2Cc3cc4ccc(=O)oc4cc3OC2(C)C)ccc1O` [SNU-C4, (S)-8,8-dimethyl-2-oxo-7,8-dihydro-2H,6H-pyrano[3,2-g]chromen-7-yl 3-(4-hydroxy-3-methoxyphenyl) propanoate]: in data set [1], the ELISA entry is listed as “Effect x”. Also, in the data set on SOD1 [2], the Immuno-fluorscence result is on record as “Effect x”. In the data set on SOD1 [3], the “Western Blot” value is listed as “Effect x”. In addition, in the data set on normal human fibroblasts, the “Toxicity (MTT)” value is “No”.
Turning to `COc1ccc(/C=C/C(=O)O[C@H]2Cc3cc4ccc(=O)oc4cc3OC2(C)C)cc1OC` [SNU-C5, (S)-8,8-dimethyl-2-oxo-7,8-dihydro-2H,6H-pyrano[3,2-g]chromen-7-yl (E)-3-(3,4-dimethoxyphenyl) acrylate], in data set [1], the ELISA result is listed as “Effect ○”. In addition, the Immuno-fluorscence entry in the data set on SOD1 [2] is recorded as “Effect x”. Besides, the “Western Blot” value in the data set with SOD1 [3] is “Effect x”. The “Toxicity (MTT)” value in the data set on normal human fibroblasts is recorded as “No”.
For the compound `COc1ccc(CCC(=O)O[C@H]2Cc3cc4ccc(=O)oc4cc3OC2(C)C)cc1OC` [SNU-C7, (S)-8,8-dimethyl-2-oxo-7,8-dihydro-2H,6H-pyrano[3,2-g]chromen-7-yl 3-(3,4-dimethoxyphenyl) propanoate], in data set [1], the ELISA entry is given as “Effect x”. Also, the Immuno-fluorscence entry in the data set on SOD1 [2] is recorded as “Effect x”. Also, the “Western Blot” value in the data set with SOD1 [3] is “Effect x”. Also, the “Toxicity (MTT)” value in the data set with normal human fibroblasts was “No”.
With `CC1(C)Oc2cc3oc(=O)ccc3cc2C[C@@H]1OC(=O)/C=C/c1ccncc1` [SNU-C9, (S)-8,8-dimethyl-2-oxo-7,8-dihydro-2H,6H-pyrano[3,2-g]chromen-7-yl (E)-3-(pyridin-4-yl) acrylate], the ELISA result in data set [1] was “Effect x”. In addition, in the data set on SOD1 [2], the Immuno-fluorscence entry is reported as “Effect ○”. Also, the “Western Blot” value with SOD1 [3] is “Effect ○”. Besides, the “Toxicity (MTT)” value in the data set on normal human fibroblasts is “No”.
On to `CC1(C)Oc2cc3oc(=O)ccc3cc2C[C@@H]1OC(=O)/C=C/c1cccc(O)c1` [SNU-C10, (S)-8,8-dimethyl-2-oxo-7,8-dihydro-2H,6H-pyrano[3,2-g]chromen-7-yl (E)-3-(3-hydroxyphenyl) acrylate], for which, in data set [1], the ELISA result is listed as “Effect ○”. For the same compound, in the data set on SOD1 [2], the Immuno-fluorscence entry is on record as “Effect ○”. Also, the “Western Blot” value with SOD1 [3] is “Effect ○”. In addition, the “Toxicity (MTT)” value in the data set on normal human fibroblasts is “No”.
For `CC1(C)Oc2cc3oc(=O)ccc3cc2C[C@@H]1OC/C=C/c1ccc(F)cc1` [SNU-C13, (S,E)-7-((3-(4-fluorophenyl)allyl)oxy)-8,8-dimethyl-7,8-dihydro-2H,6H-pyrano[3,2-g]chromen-2-one], the “Western Blot” value with SOD1 [3] is recorded as “Effect x”.
`CC(=O)Oc1cccc(/C=C/C(=O)O[C@H]2Cc3cc4ccc(=O)oc4cc3OC2(C)C)c1` [SNU-C14, (S)-8,8-dimethyl-2-oxo-7,8-dihydro-2H,6H-pyrano[3,2-g]chromen-7-yl (E)-3-(3-acetoxyphenyl) acrylate]: the ELISA result in data set [1] was “Effect ○”. Moreover, the Immuno-fluorscence result with SOD1 [2] is “Effect ○”. In the data set with SOD1 [3], the “Western Blot” value is “Effect ○”. Besides, the “Toxicity (MTT)” value with normal human fibroblasts is given as “No”.
Turning to `COc1cc(CCC(=O)O[C@H]2Cc3cc4ccc(=O)oc4cc3OC2(C)C)ccc1OC(C)=O` [SNU-C15, (S)-8,8-dimethyl-2-oxo-7,8-dihydro-2H,6H-pyrano[3,2-g]chromen-7-yl 3-(4-acetoxy-3-methoxyphenyl) propanoate], in data set [1], the ELISA entry is listed as “Effect x”. In addition, the Immuno-fluorscence entry in the data set with SOD1 [2] is “Effect ○”. The “Western Blot” value in the data set on SOD1 [3] is “Effect ○”. Also, in the data set with normal human fibroblasts, the “Toxicity (MTT)” value is “No”.
With `COc1cc(/C=C/C(=O)O[C@H]2Cc3cc4ccc(=O)oc4cc3OC2(C)C)ccc1OC(C)=O` [SNU-C17, (S)-8,8-dimethyl-2-oxo-7,8-dihydro-2H,6H-pyrano[3,2-g]chromen-7-yl (E)-3-(4-acetoxy-3-methoxyphenyl) acrylate], the Immuno-fluorscence result in the data set on SOD1 [2] was “Effect ○”. For the same compound, in the data set with SOD1 [3], the “Western Blot” value was “Effect ○”.
With `CC1(C)Oc2cc3oc(=O)ccc3cc2C[C@@H]1OC(=O)/C=C/c1ccc(F)c(F)c1` [SNU-C18, (S)-8,8-dimethyl-2-oxo-7,8-dihydro-2H,6H-pyrano[3,2-g]chromen-7-yl (E)-3-(3,4-difluorophenyl) acrylate], in the data set on SOD1 [2], the Immuno-fluorscence result is “Effect ○”. Also, the “Western Blot” value with SOD1 [3] was “Effect ○”. The “Toxicity (MTT)” value in the data set with normal human fibroblasts is “Toxic”.
In the case of `c1ccc(CN(CCN(Cc2ccccn2)Cc2ccccn2)Cc2ccccn2)nc1` [TPEN], the “SOD1 aggregation” value in the data set with WT-SOD1 (FIG. 1C, 1D, FIG. 2) is listed as “induced the WT-SOD1 aggregation”.
Still for that read-out and setting: the result for `C/C=C(/C)C(=O)O[C@H]1C(C)=C2[C@H]([C@@H]1OC(=O)CCCCCCC)[C@@](C)(OC(C)=O)C[C@H](OC(=O)CCC)[C@@]1(O)[C@H]2OC(=O)[C@@]1(C)O` [Thapsigargin] reads “promoted the WT-SOD1 aggregation”.
